# ChEMBL document CHEMBL5674860, “Optimized Dual-Glo Assay to identify co-culture-induced drug vulnerabilities in 3D CRC models” (2024)
# Legend:
# Type in all cases: functional, Homo sapiens
# Parameters in all cases: dose or concentration left out as unconfirmed
# Colon cancer organoid [1] = assay: Optimized Dual-Glo assay to identify co-culture induced drug vulnerabilities using donated chemical probes and chemogenomics kinase set in O20 CRC organoid and F20 CAF mono and co-culture. […] Cell viability is reported both mono and co-culture models.
# Colon cancer organoid [2] = assay: Optimized Dual-Glo assay to identify co-culture induced drug vulnerabilities using donated chemical probes and chemogenomics kinase set in O06 CRC organoid and F06 CAF mono and co-culture. […] Cell viability is reported both mono and co-culture models.
# Colon cancer organoid [3] = assay: Optimized Dual-Glo assay to identify co-culture induced drug vulnerabilities using donated chemical probes and chemogenomics kinase set in O14 CRC organoid and F14 CAF mono and co-culture. […] Cell viability is reported both mono and co-culture models.
# [4] = Culture type Co-Culture, Transduced with Lucferase2-P2A-EGFP lentivirus
# [5] = Culture type Co-Culture, Transduced with Renilla-dsRed lentivirus
# [6] = Culture type Mono-Culture, Transduced with Lucferase2-P2A-EGFP lentivirus
# [7] = Culture type Mono-Culture, Transduced with Renilla-dsRed lentivirus
SMILES,Cell Viability (Colon cancer organoid [1]; [4]),Cell Viability (Colon cancer organoid [1]; [5]),Cell Viability (Colon cancer organoid [1]; [6]),Cell Viability (Colon cancer organoid [1]; [7]),Cell Viability (Colon cancer organoid [2]; [4]),Cell Viability (Colon cancer organoid [2]; [5]),Cell Viability (Colon cancer organoid [2]; [6]),Cell Viability (Colon cancer organoid [2]; [7]),Cell Viability (Colon cancer organoid [3]; [4]),Cell Viability (Colon cancer organoid [3]; [5]),Cell Viability (Colon cancer organoid [3]; [6]),Cell Viability (Colon cancer organoid [3]; [7])
Cc1cc(C)cc(C(=O)NOCCCCCC(=O)NO)c1,15.3163%,402.959%,16.4949%,194.272%,13.8956%,454.718%,14.9602%,431.4%,50.8168%,381.601%,48.3088%,262.893%
CCn1cc(-c2cccc(C(F)(F)F)c2)c2sc(C(=N)NC3CCS(=O)(=O)CC3)cc2c1=O,60.6992%,124.144%,95.8372%,109.255%,95.4713%,165.165%,69.4061%,200.249%,120.643%,201.969%,99.2111%,135.353%
C[C@@H]1CC(=O)Nc2cccc(-c3ccc4c(c3)c(-c3cnn(C)c3)nn4C)c2N1,69.0231%,148.573%,48.9735%,106.497%,96.7982%,166.358%,47.1538%,205.908%,64.6948%,192.573%,92.2277%,159.466%
CC(=O)c1cc(-c2cc(C(=O)NC3CC3)ccc2C)c2ncccn12,68.1057%,121.421%,109.894%,113.039%,95.4153%,118.795%,58.2009%,132.016%,100.15%,126.848%,106.827%,109.242%
Cc1sc2c(c1C)C(c1ccc(Cl)cc1)=N[C@@H](CC(=O)NCCCCCCCCNC(=O)COc1cccc3c1C(=O)N(C1CCC(=O)NC1=O)C3=O)c1nnc(C)n1-2 (stereo partly drawn),2.002%,74.9854%,1.636%,22.3036%,5.4511%,19.3995%,5.5885%,11.9931%,2.938%,15.8723%,4.49%,21.4216%
CN(C)CCCOc1ccc(-c2cc(NCCCn3cccn3)nc(S(C)(=O)=O)n2)cc1,144.301%,126.832%,110.606%,92.2355%,126.468%,129.443%,108.628%,116.281%,98.5657%,111.103%,109.089%,94.6282%
Cc1c(Nc2ccc(S(=O)(=O)N3CCN(C)CC3)cc2F)nc2ccc(Nc3cnn(C4CC4)c3)cn2c1=O,117.664%,135.679%,121.681%,97.2871%,81.8172%,120.859%,129.193%,116.74%,111.5%,108.059%,92.684%,101.792%
Cc1c(Nc2ccc(S(=O)(=O)N3CCN(C)CC3)cc2F)nc2ccc(-c3cnn(C4CC4)c3)cn2c1=O,100.034%,149.535%,70.24%,85.351%,106.525%,138.146%,47.9872%,100.536%,89.9801%,85.4908%,97.5645%,92.3914%
CCCCN(Cc1ccccc1)C(=O)c1ccc(S(=O)(=O)Nc2ccccc2)cc1,74.981%,116.955%,117.076%,107.638%,64.4698%,76.2121%,99.0346%,112.912%,108.863%,102.946%,107.066%,103.133%
COc1cc(OC)cc(-c2noc(N3CCN(C)C4(CCN(c5ccnc(C)c5)CC4)C3)n2)c1,136.007%,146.282%,103.16%,78.5515%,121.179%,136.172%,96.7414%,97.7605%,84.0267%,119.648%,90.6911%,98.8129%
CNc1cc(Oc2cc(C(=O)Nc3cc(N4CCN(C)CC4)cc(C(F)(F)F)c3)ccc2C)ncn1,162.082%,75.5289%,115.09%,103.127%,72.9479%,75.3319%,138.287%,104.785%,139.066%,110.099%,182.817%,99.4408%
CC1=C(C)C(=O)C(C(C)(C)CC(=O)N(CCCCSC[C@H]2O[C@@H](n3cnc4c(N)ncnc43)[C@@H]3OC(C)(C)O[C@@H]32)Cc2cccc(-c3ccc(Cl)cc3)c2)=C(C)C1=O,97.2624%,117.278%,134.873%,88.9157%,82.0361%,129.013%,89.6281%,110.922%,111.496%,127.734%,88.6013%,108.216%
COCCN1CCC(c2cc(CN(C)C(=O)c3cccc(Oc4ccccc4)c3)ccn2)CC1,94.1045%,115.605%,130.999%,103.56%,91.2389%,131.922%,95.8918%,124.805%,94.0691%,112.751%,102.019%,112.74%
CC1=C(C)C(=O)C(C(C)(C)CC(=O)N(CCCCSC[C@H]2O[C@@H](n3cnc4c(N)ncnc43)[C@H](O)[C@@H]2O)Cc2cccc(-c3ccc(Cl)cc3)c2)=C(C)C1=O,99.381%,114.813%,107.414%,99.5191%,117.447%,138.552%,64.6918%,115.82%,78.0162%,155.416%,78.4613%,102.407%
